One data set addresses Cytochrome P450 3A4 (Homo sapiens, UniProt P08684). The data set is described as follows: clinical. To be noted: for overall 1′-OH-midazolam exposure (based on AUC) increased by: free+conjugates. The protocol: (§1) Methodology: This was a Phase 1, open-label, monosequence crossover, drug-drug interaction study of RAVICTI® and midazolam in healthy male and female subjects.
(§2) Single doses of midazolam HCl syrup (2 mg/mL) were administered in the morning following an approximate 10-hour fast on Days 1 and 5 (coadministered with RAVICTI® on Day 5) just prior to administration of breakfast (˜5 minutes before breakfast).
(§3) Pharmacokinetics: Blood samples for the analysis of plasma midazolam and its metabolite (1′-OH-midazolam, free+conjugates) levels were collected via an indwelling catheter and/or via direct venipuncture. Blood samples were collected on Days 1 and 5 at the following time points: predose, 0.5, 1, 2, 3, 4, 6, 8, 10, 12, 16, and 24 hours postdose. In addition, five plasma PK samples for GPB analysis were collected on Day 4 at the following time points: at 1 minute, 30 minutes, and 1 hour following the first morning dose of RAVICTI; at 30 minutes and 1 hour post second dose of RAVICTI.
(§4) Pharmacokinetics: The possible drug-drug interaction was examined between coadministration of RAVICTI and midazolam (test) and midazolam administered alone (reference). An analysis of variance (ANOVA), with treatment as a fixed effect and subject as a random effect, was performed. Data for Cmax, AUC0-t, and AUC0-∞, as appropriate, were natural log (ln)-transformed prior to analysis. The 90% confidence intervals (CIs) of the test group means relative to the reference group means were obtained by taking the antilog of the corresponding 90% CIs for the differences between the means on the log scale, i.e., ratio of geometric least-squares (LS) means.

The target in a further data set is Cytochrome P450 2C9 (Homo sapiens, UniProt P11712). The experiment in a line: clinical. The settings on record: 200 mg celecoxib with RAVICTI 4 mL three times a day for 6 days, fed conditions. The protocol:
(§5) Methodology: This was an open-label, 2-period, monosequence crossover, drug-drug interaction (DDI) study of RAVICTI and celecoxib in healthy male and female subjects.
(§6) Test Product, Dose, Duration, and Mode of Administration: In Treatment A (Period 1), subjects received 200 mg celecoxib (1×200 mg capsule) administered orally with approximately 240 mL of water following an overnight fast and approximately 5 minutes prior to the start of a standard breakfast on Day 1.
(§7) Pharmacokinetics: Blood samples (4 mL) for the analysis of plasma celecoxib were collected on Days 1 (Period 1) and 4 (Period 2) at the following time points: predose (Hour 0) and 1, 2, 3, 4, 6, 8, 12, 16, 24, 36, 48, 60, and 72 hours postdose. A blood sample (6 mL) for CYP2C9 genotyping was collected at screening to exclude any subjects with a slow metabolizer genotype (i.e., CYP2C9*2/*2, CYP2C9*2/*3, CYP2C9*1/*3, and CYP2C9*3/*3). PK parameters for celecoxib in plasma were computed following Day 1 (Period 1) and Day 4 (Period 2) blood draws and included AUC0-t, AUC0-inf, AUC%extr, Cmax, tmax, t1/2, kel, and CL/F.
(§8) Pharmacokinetics: The possible DDI was examined between co-administration of RAVICTI and celecoxib (Treatment B, test) and celecoxib administered alone (Treatment A, reference). An analysis of variance (ANOVA) was performed with treatment as a fixed effect and subject as a random effect. Data for AUC0-t, AUC0-inf, and Cmax, as appropriate, were ln-transformed prior to analysis. The 90% confidence intervals (CIs) of the test group means relative to the reference group means were obtained by taking the antilog of the corresponding 90% CIs for the differences between the means on the log scale, i.e., ratio of geometric least-squares (LS) means.

For a further data set, the target named is CYP2C9 (Homo sapiens, UniProt P11712). The experiment in a line: clinical. The settings on record: both, human, plasma, oral, 200 mg. As to the method:
as §5, §6, §7, §8

The target of a further data set is CYP3A4 (Homo sapiens, UniProt P08684). The experiment in a line: clinical. The settings on record: both, human, in vivo, 3 mg. As to the method: as §1, §2, §3, §4
A short description of data set [1]: Mean peak concentration of PBA and PAA in different patient populations.
Another data set addresses T1, CYP1A2 (Homo sapiens, UniProt P05177).
T1 construct: from tissue; host or cells: human liver microsomes
T1 sequence (P05177 1-516): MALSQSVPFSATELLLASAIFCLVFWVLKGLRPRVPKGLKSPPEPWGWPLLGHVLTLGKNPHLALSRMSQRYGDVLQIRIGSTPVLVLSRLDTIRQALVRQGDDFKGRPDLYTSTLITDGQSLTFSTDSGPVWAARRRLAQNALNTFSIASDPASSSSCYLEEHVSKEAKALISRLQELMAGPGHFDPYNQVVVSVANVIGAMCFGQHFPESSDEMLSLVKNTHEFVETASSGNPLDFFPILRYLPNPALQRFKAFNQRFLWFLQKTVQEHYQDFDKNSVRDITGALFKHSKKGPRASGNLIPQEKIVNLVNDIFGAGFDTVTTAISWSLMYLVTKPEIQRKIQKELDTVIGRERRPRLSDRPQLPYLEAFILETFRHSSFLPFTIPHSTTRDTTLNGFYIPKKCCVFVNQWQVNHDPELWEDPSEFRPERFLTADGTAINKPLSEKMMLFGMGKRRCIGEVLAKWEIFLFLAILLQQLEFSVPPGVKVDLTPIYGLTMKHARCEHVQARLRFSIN
Format: in vitro ADME. To be noted: for % Inhibition: 7-ethoxyresorufin-O-deethylase, 5 mM.

Data set [2] has as its system CYP3A4/5.
Data set [3] deals with CYP3A4/5. Format: in vitro ADME, human. The settings on record: Testosterone 6β-hydroxylase, 5 mM.
Another data set concerns the target T2, CYP2C19 (Homo sapiens, UniProt P33261).
T2 construct: from tissue; host or cells: human liver microsomes
The format is in vitro ADME. The settings on record: for % Inhibition: S-Mephenytoin 4′-hydroxylase, 5 mM.

For a further data set, the target named is T3, CYP2C8 (Homo sapiens, UniProt P10632).
T3 construct: from tissue; host or cells: human liver microsomes
T3 sequence (P10632 1-490): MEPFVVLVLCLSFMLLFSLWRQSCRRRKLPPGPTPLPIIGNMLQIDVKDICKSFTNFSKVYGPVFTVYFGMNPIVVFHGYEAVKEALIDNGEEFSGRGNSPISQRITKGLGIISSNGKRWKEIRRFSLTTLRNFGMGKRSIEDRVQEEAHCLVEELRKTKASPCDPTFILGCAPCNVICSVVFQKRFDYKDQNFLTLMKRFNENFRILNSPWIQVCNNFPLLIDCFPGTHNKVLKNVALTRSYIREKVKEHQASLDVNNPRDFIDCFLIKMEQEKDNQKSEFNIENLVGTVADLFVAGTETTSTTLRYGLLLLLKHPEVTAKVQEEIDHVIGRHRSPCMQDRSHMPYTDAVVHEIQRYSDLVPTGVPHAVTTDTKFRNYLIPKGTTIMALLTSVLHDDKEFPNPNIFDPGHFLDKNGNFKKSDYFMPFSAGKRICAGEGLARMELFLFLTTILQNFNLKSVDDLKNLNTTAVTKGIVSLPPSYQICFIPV
The experiment in a line: In vitro CYP inhibition study, human liver microsomes, CYP2C8. Format: in vitro ADME. To be noted: for % Inhibition: Taxol 6α-hydroxylase, 5 mM. For orientation: Liver microsomes are vesicles of endoplasmic reticulum, rich in cytochrome P450 enzymes.

Where [4] appears, read: after RAVICTI 4 mL three times a day for 3 days, fed conditions, healthy subjects.
The mark [5] stands for this setting: upon coadministration with multiple-dose RAVICTI.

Read-outs that look alike come from different tables or passages of the source.

CYP2C9, sequence (P11712 whole entry): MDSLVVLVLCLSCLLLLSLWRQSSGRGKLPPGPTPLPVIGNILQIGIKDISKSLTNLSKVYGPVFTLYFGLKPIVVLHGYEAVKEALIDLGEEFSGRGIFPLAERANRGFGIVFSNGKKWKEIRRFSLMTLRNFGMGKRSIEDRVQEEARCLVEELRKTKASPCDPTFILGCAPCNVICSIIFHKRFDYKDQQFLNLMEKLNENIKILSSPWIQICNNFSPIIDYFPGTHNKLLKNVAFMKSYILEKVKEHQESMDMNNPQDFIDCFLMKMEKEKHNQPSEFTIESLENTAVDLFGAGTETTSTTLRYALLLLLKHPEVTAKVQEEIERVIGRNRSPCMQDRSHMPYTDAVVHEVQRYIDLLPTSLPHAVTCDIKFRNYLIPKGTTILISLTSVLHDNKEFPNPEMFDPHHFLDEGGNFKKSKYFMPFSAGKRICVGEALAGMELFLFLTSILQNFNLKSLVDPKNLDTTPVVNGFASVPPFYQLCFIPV
Cytochrome P450 3A4, sequence (P08684 whole entry): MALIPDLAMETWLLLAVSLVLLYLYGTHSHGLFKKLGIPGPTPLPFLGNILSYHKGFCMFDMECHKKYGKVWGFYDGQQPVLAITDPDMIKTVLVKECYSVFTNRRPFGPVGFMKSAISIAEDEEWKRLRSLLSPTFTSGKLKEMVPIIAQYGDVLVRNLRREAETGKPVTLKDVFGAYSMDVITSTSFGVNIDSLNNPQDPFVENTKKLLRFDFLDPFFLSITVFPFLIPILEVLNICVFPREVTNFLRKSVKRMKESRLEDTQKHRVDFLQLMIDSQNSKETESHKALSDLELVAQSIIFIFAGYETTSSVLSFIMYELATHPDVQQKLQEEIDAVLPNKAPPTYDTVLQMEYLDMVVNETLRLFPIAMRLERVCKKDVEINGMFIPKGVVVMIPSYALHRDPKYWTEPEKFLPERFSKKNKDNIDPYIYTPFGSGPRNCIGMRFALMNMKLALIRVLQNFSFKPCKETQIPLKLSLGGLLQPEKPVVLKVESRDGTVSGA
CYP3A4, sequence (P08684 whole entry): as above
T2 sequence (P33261 whole entry): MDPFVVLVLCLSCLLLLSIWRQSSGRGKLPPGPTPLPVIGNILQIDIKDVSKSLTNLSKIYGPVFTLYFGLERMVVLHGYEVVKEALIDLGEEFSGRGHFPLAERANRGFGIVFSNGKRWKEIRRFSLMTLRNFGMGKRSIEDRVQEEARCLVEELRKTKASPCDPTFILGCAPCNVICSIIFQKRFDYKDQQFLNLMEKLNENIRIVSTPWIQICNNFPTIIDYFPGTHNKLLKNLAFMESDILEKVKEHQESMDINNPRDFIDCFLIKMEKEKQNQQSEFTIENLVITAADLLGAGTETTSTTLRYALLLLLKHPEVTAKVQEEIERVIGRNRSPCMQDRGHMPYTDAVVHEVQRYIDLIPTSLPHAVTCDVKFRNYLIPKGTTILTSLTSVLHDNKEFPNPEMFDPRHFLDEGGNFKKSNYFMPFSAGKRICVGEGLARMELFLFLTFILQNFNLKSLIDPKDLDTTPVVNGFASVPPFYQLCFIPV
Cytochrome P450 2C9, sequence (P11712 whole entry): as the sequence (P11712 whole entry) above

As to `OCc1ncc2n1-c1ccc(Cl)cc1C(c1ccccc1F)=NC2` [1′-OH-midazolam], on Cytochrome P450 3A4 (setting [4]), the “mean AUC for 1-hydroxy midazolam higher than midazolam alone” value is given as 58% and the “mean Cmax for 1-hydroxy midazolam higher than midazolam alone” value amounted to 28%. In addition, on Cytochrome P450 3A4 (setting [5]), the “1′-OH-midazolam Cmax (peak exposure) increased by” value amounted to 28% and the “overall 1′-OH-midazolam exposure (based on AUC) increased by” value is recorded as “approximately 60%”. Further, the “overall 1′-OH-midazolam exposure (based on AUC) increased by” value on Cytochrome P450 3A4 (upon coadministration with multiple-dose RAVICTI, listed as 1′-hydroxy-midazolam) worked out at 60%.
By AUC(0-inf) is commonly meant the area under the concentration-time curve extrapolated to infinity. Higher therefore signals high exposure. The AUC(0-t) is the area under the concentration-time curve up to a stated or last time point. Higher therefore signals more exposure. A word on the Cmax: it is the highest concentration seen after dosing. As to `Cc1ccc(-c2cc(C(F)(F)F)nn2-c2ccc(S(N)(=O)=O)cc2)cc1` [Celecoxib, celecoxib], at Cytochrome P450 2C9, the “mean AUC for celecoxib lower than celecoxib alone” value is recorded as 8% and the “mean Cmax for celecoxib lower than celecoxib alone” value came out at 13%. On CYP2C9, this molecule had an AUC(0-inf) of 5440 ng·h/mL, an AUC(0-t) of 5170 ng·h/mL and a Cmax of 620 ng/mL.
At CYP3A4, `Cc1ncc2n1-c1ccc(Cl)cc1C(c1ccccc1F)=NC2` [Midazolam, midazolam] yielded an AUC(0-inf) of 67 ng·h/mL, an AUC(0-t) of 64.7 ng·h/mL and a Cmax of 16.8 ng/mL. Moreover, on Cytochrome P450 3A4 (setting [4]), the “mean AUC for midazolam lower than midazolam alone” value is 32% and the “mean Cmax for midazolam lower than midazolam alone” value was 25%. Further, at Cytochrome P450 3A4 (setting [5]), the “midazolam overall exposure reduced by” value is listed as about 32% and the “midazolam peak exposure reduced by” value is “approximately 26%”. In addition, the “midazolam peak exposure reduced by” value on Cytochrome P450 3A4 (upon coadministration with multiple-dose RAVICTI, listed as midazolam) was determined as 26%.
Broadly, the % Inhibition is how much of the control response was suppressed. For phenylbutyrate [PBA], the “PBA Mean peak concentration” value in data set [1] (Cirrhotic - HE 9 ml BID) worked out at 0.1412 mg/mL; in data set [1] (Healthy volunteer), 0.037 mg/mL; in [1] (UCD adult), 0.0701 mg/mL; in data set [1] (UCD pediatric) it was 0.0956 mg/mL. The “inhibition of CYP1A2 (in words)” value on CYP1A2 (5 mM (0.821 mg/ml)) was “did not inhibit”. Besides, the “% Inhibition” value was found to be 6% at CYP1A2 (pre-incubation time 0 min); 2% at CYP1A2 (pre-incubation time 30 min); 80% in the data set on CYP3A4/5 [3] (pre-incubation time 0 min); 85% in the data set with CYP3A4/5 [3] (pre-incubation time 30 min); 26% on CYP2C19 (pre-incubation time 0 min); 19% on CYP2C19 (pre-incubation time 30 min). For the same molecule, the entries for the “% Inhibition” value at CYP2C8 (pre-incubation time 0 min) and at CYP2C8 (pre-incubation time 30 min) were 24% and 27%, respectively. In the data set on CYP3A4/5 [2], the “extent of induction lower compared to the positive control (rifampicin)” value is reported as “about 50%”. At CYP2C19 (5 mM (0.821 mg/ml)), the “inhibition of CYP2C19 (in words)” value is “did not inhibit”. Also, the “inhibition of CYP2C8 (in words)” value at CYP2C8 (5 mM (0.821 mg/ml)) is “did not inhibit”.

The values above are taken from patent US20190076384A1, “METHODS FOR TREATING UREA CYCLE DISORDERS” (priority 2017, published 2019).
